Laboratory results from the supplement of paper PMC8617591.

How the values were obtained:
[1] = system: Mycobacterium tuberculosis Erdman (autoluminescent); test: AUC25, normalised area under dose response up to IC25 (fraction (0-1)); higher = more potent at low dose
Procedure: (§1)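 DiaMOND dose responses (10 doses, 1.5- or 2-fold spacing, equipotent around IC90) of autoluminescent M. tuberculosis Erdman in 8 in vitro models. Read-out is OD600, or luminescence for the intracellular (J774) and dormancy models, background-subtracted and normalised to untreated wells. A 3-parameter Hill fit gives Einf and AUC25 (area to IC25 normalised by IC25); GRinf comes from a Hill fit of the Hafner normalised growth rate. Biological replicates passing QC are averaged. Single drugs only.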

[2] = system: Mycobacterium tuberculosis Erdman (autoluminescent); test: Einf, fitted maximum growth inhibition (fraction); higher = stronger maximal inhibition
Procedure: as §1

[3] = system: Mycobacterium tuberculosis Erdman (autoluminescent); test: GRinf, maximum normalised growth rate inhibition (unitless (-1 to 1)); higher = less effect (negative = killing)
Procedure: as §1

[4] = in vitro model: acidic pH 5.7, time point: constant (~7 days, model-specific)
[5] = in vitro model: acidic pH 5.7, time point: terminal (~4-5 doublings, model-specific)
[6] = in vitro model: butyrate, time point: constant (~7 days, model-specific)
[7] = in vitro model: butyrate, time point: terminal (~4-5 doublings, model-specific)
[8] = in vitro model: cholesterol 0.05 mM, time point: constant (~7 days, model-specific)
[9] = in vitro model: cholesterol 0.05 mM, time point: terminal (~4-5 doublings, model-specific)
[10] = in vitro model: cholesterol-high 0.2 mM, time point: constant (~7 days, model-specific)
[11] = in vitro model: cholesterol-high 0.2 mM, time point: terminal (~4-5 doublings, model-specific)
[12] = in vitro model: dormancy (butyrate + nitrate, low O2), time point: constant (~7 days, model-specific)
[13] = in vitro model: dormancy (butyrate + nitrate, low O2), time point: terminal (~4-5 doublings, model-specific)
[14] = in vitro model: standard 7H9 glycerol, time point: constant = terminal
[15] = in vitro model: valerate, time point: constant (~7 days, model-specific)
[16] = in vitro model: valerate, time point: terminal (~4-5 doublings, model-specific)
[17] = in vitro model: intracellular J774, time point: constant = terminal

COc1nc2ccc(Br)cc2cc1[C@@H](c1ccccc1)[C@@](O)(CCN(C)C)c1cccc2ccccc12 [bedaquiline]
AUC25 [1, 4]: 0.109 | AUC25 [1, 5]: 0.0902 | AUC25 [1, 6]: 0.0777 | AUC25 [1, 7]: 0.0609 | AUC25 [1, 8]: 0.0895 | AUC25 [1, 9]: 0.0718 | AUC25 [1, 10]: 0.0559 | AUC25 [1, 11]: 0.0462 | AUC25 [1, 12]: 0.0618 | AUC25 [1, 13]: 0.0799 | AUC25 [1, 14]: 0.0758 | AUC25 [1, 15]: 0.0789 | AUC25 [1, 16]: 0.0549 | Einf [2, 4]: 0.921 | Einf [2, 5]: 0.988 | Einf [2, 6]: 0.964 | Einf [2, 7]: 0.984 | Einf [2, 8]: 0.766 | Einf [2, 9]: 0.946 | Einf [2, 10]: 0.975 | Einf [2, 11]: 1 | Einf [2, 12]: 0.908 | Einf [2, 13]: 0.979 | Einf [2, 17]: 0.979 | Einf [2, 14]: 0.97 | Einf [2, 15]: 0.92 | Einf [2, 16]: 0.963 | GRinf [3, 4]: -0.617 | GRinf [3, 5]: -0.475 | GRinf [3, 6]: -0.167 | GRinf [3, 7]: -0.138 | GRinf [3, 8]: -0.328 | GRinf [3, 9]: -0.335 | GRinf [3, 10]: -0.613 | GRinf [3, 11]: -0.647 | GRinf [3, 12]: 0.184 | GRinf [3, 13]: -0.0503 | GRinf [3, 17]: -0.319 | GRinf [3, 14]: -0.118 | GRinf [3, 15]: -0.142 | GRinf [3, 16]: -0.0955

CC(C)/N=c1\cc2n(-c3ccc(Cl)cc3)c3ccccc3nc-2cc1Nc1ccc(Cl)cc1 [clofazimine]
AUC25 [1, 4]: 0.0949 | AUC25 [1, 5]: 0.0888 | AUC25 [1, 6]: 0.0887 | AUC25 [1, 7]: 0.0859 | AUC25 [1, 8]: 0.129 | AUC25 [1, 9]: 0.13 | AUC25 [1, 10]: 0.12 | AUC25 [1, 11]: 0.114 | AUC25 [1, 12]: 0.115 | AUC25 [1, 13]: 0.0838 | AUC25 [1, 14]: 0.113 | AUC25 [1, 15]: 0.155 | AUC25 [1, 16]: 0.0638 | Einf [2, 4]: 0.748 | Einf [2, 5]: 0.966 | Einf [2, 6]: 0.963 | Einf [2, 7]: 0.989 | Einf [2, 8]: 0.527 | Einf [2, 9]: 0.844 | Einf [2, 10]: 0.938 | Einf [2, 11]: 1 | Einf [2, 12]: 0.876 | Einf [2, 13]: 0.922 | Einf [2, 17]: 0.997 | Einf [2, 14]: 0.965 | Einf [2, 15]: 0.88 | Einf [2, 16]: 0.895 | GRinf [3, 4]: 0.0361 | GRinf [3, 5]: -0.229 | GRinf [3, 6]: -0.0183 | GRinf [3, 7]: -0.0492 | GRinf [3, 8]: 0.329 | GRinf [3, 9]: 0.0361 | GRinf [3, 10]: -0.473 | GRinf [3, 11]: -0.945 | GRinf [3, 12]: 0.339 | GRinf [3, 13]: -0.0947 | GRinf [3, 17]: -0.696 | GRinf [3, 14]: -0.0492 | GRinf [3, 15]: -0.412 | GRinf [3, 16]: 0.239

CC[C@@H](CO)NCCN[C@@H](CC)CO [ethambutol]
AUC25 [1, 4]: 0.103 | AUC25 [1, 5]: 0.0746 | AUC25 [1, 6]: 0.0706 | AUC25 [1, 7]: 0.0701 | AUC25 [1, 8]: 0.0906 | AUC25 [1, 9]: 0.0751 | AUC25 [1, 10]: 0.0267 | AUC25 [1, 11]: 0.0346 | AUC25 [1, 12]: 0.0829 | AUC25 [1, 13]: 0.0685 | AUC25 [1, 14]: 0.0599 | AUC25 [1, 15]: 0.0683 | AUC25 [1, 16]: 0.0665 | Einf [2, 4]: 0.785 | Einf [2, 5]: 0.963 | Einf [2, 6]: 0.86 | Einf [2, 7]: 0.918 | Einf [2, 8]: 0.621 | Einf [2, 9]: 0.907 | Einf [2, 10]: 0.85 | Einf [2, 11]: 1 | Einf [2, 12]: 0.777 | Einf [2, 13]: 0.914 | Einf [2, 17]: 0.977 | Einf [2, 14]: 0.852 | Einf [2, 15]: 0.728 | Einf [2, 16]: 0.832 | GRinf [3, 4]: -0.121 | GRinf [3, 5]: -0.204 | GRinf [3, 6]: 0.144 | GRinf [3, 7]: 0.173 | GRinf [3, 8]: 0.0788 | GRinf [3, 9]: -0.193 | GRinf [3, 10]: -0.161 | GRinf [3, 11]: -0.768 | GRinf [3, 12]: 0.544 | GRinf [3, 13]: 0.295 | GRinf [3, 17]: -0.237 | GRinf [3, 14]: 0.208 | GRinf [3, 15]: 0.301 | GRinf [3, 16]: 0.297

NNC(=O)c1ccncc1 [isoniazid]
AUC25 [1, 4]: 0.0571 | AUC25 [1, 5]: 0.0392 | AUC25 [1, 6]: 0.0446 | AUC25 [1, 7]: 0.0452 | AUC25 [1, 8]: 0.101 | AUC25 [1, 9]: 0.0895 | AUC25 [1, 10]: 0.0813 | AUC25 [1, 11]: 0.0704 | AUC25 [1, 12]: 0.0691 | AUC25 [1, 13]: 0.0601 | AUC25 [1, 14]: 0.0311 | AUC25 [1, 15]: 0.0515 | AUC25 [1, 16]: 0.0365 | Einf [2, 4]: 0.674 | Einf [2, 5]: 0.933 | Einf [2, 6]: 0.937 | Einf [2, 7]: 0.981 | Einf [2, 8]: 0.738 | Einf [2, 9]: 0.915 | Einf [2, 10]: 0.905 | Einf [2, 11]: 0.994 | Einf [2, 12]: 0.903 | Einf [2, 13]: 0.982 | Einf [2, 17]: 0.932 | Einf [2, 14]: 0.882 | Einf [2, 15]: 0.881 | Einf [2, 16]: 0.932 | GRinf [3, 4]: 0.0942 | GRinf [3, 5]: -0.101 | GRinf [3, 6]: -0.0682 | GRinf [3, 7]: -0.137 | GRinf [3, 8]: -0.177 | GRinf [3, 9]: -0.208 | GRinf [3, 10]: -0.466 | GRinf [3, 11]: -0.567 | GRinf [3, 12]: 0.286 | GRinf [3, 13]: -0.0707 | GRinf [3, 17]: -0.113 | GRinf [3, 14]: 0.145 | GRinf [3, 15]: 0.0138 | GRinf [3, 16]: 0.0316
